Results reported in patent US6355799B1, “Substituted benzene compounds, process for their preparation, and herbicidal and defoliant compositions containing them” (ISK Americas Incorporated, priority 1997, dated 2002).

Key:
Format in all cases: in vivo
[1] = system: redroot pigweed (Amaranthus retroflexus, AMARE); assay: Pre-emerge test, greenhouse herbicide activity screening; conditions: rated 14 days after application, 0 = no damage, 100 = complete death
Outline: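 Compounds in acetone were track-sprayed at 15-1000 g ai/ha (187 l/ha) on sandy loam pots: pre-emerge one day after seeding, post-emerge at 2-3 leaf stage with 0.25% v/v non-ionic surfactant. Phytotoxicity was rated 14 days later on a 0 (no damage) to 100 (complete death) scale.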

[2] = system: barnyardgrass (Echinochloa crus-galli, ECHCG); assay: as above; conditions: rated 14 days after application, 0 = no damage, 100 = complete death
Outline: (§1)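 Sandy loam pots; pre-emerge: sown 1 d pre-spray, surface-watered after, then bottom-watered. Post-emerge: sown 8–21 d before, 2–3 leaf stage, + 0.25% v/v NIS, bottom-watered. Acetone, 187 l/ha track spray, 15–1000 g ai/ha. 0–100 injury score, day 14.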

[3] = system: green foxtail (Setaria viridis, SETVI); assay: as above; conditions: rated 14 days after application, 0 = no damage, 100 = complete death
Outline: as §1

[4] = system: ivyleaf morningglory (Ipomoea hederacea, IPOHE); assay: as above; conditions: rated 14 days after application, 0 = no damage, 100 = complete death
Outline: as §1

[5] = system: johnsongrass (Sorghum halepense, SORHA); assay: as above; conditions: rated 14 days after application, 0 = no damage, 100 = complete death
Outline: as §1

[6] = system: lambsquarters (Chenopodium album, CHEAL); assay: as above; conditions: rated 14 days after application, 0 = no damage, 100 = complete death
Outline: as §1

[7] = system: large crabgrass (Digitaria sanguinalis, DIGSA); assay: as above; conditions: rated 14 days after application, 0 = no damage, 100 = complete death
Outline: as §1

[8] = system: sicklepod (Cassia obtusifolia, CASOB); assay: as above; conditions: rated 14 days after application, 0 = no damage, 100 = complete death
Outline: as §1

[9] = system: velvetleaf (Abutilon theophrasti, ABUTH); assay: as above; conditions: rated 14 days after application, 0 = no damage, 100 = complete death
Outline: as §1

[10] = system: field corn (Zea mays L., var. Dekalb 535, CORN); assay: Pre-emerge test, crop safety; conditions: rated 14 days after application, 0 = no damage, 100 = complete death
Outline: (§2)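 Visual ratings on a 0-100 scale (0 no damage, 100 all plants dead) were taken at 14 days after treatment. Rates of 15-1000 g ai/ha in acetone, 187 l/ha, were sprayed onto soil one day after planting (pre-emerge) or onto 2-3 leaf plants with 0.25% v/v surfactant (post-emerge).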

[11] = system: upland rice (Oryza sp., var. Tebonnet, RICE); assay: Pre-emerge test, crop safety; conditions: rated 14 days after application, 0 = no damage, 100 = complete death
Outline: as §2

[12] = system: barnyardgrass (Echinochloa crus-galli, ECHCG); assay: Post-emerge test, greenhouse herbicide activity screening; conditions: post-emerge, 14 days after application, rating scale 0-100
Outline: as §2

[13] = system: green foxtail (Setaria viridis, SETVI); assay: as above; conditions: post-emerge, 14 days after application, rating scale 0-100
Outline: as §2

[14] = system: ivyleaf morningglory (Ipomoea hederacea, IPOHE); assay: as above; conditions: post-emerge, 14 days after application, rating scale 0-100
Outline: as §2

[15] = system: johnsongrass (Sorghum halepense, SORHA); assay: as above; conditions: post-emerge, 14 days after application, rating scale 0-100
Outline: as §2

[16] = system: lambsquarters (Chenopodium album, CHEAL); assay: as above; conditions: post-emerge, 14 days after application, rating scale 0-100
Outline: as §2

[17] = system: large crabgrass (Digitaria sanguinalis, DIGSA); assay: as above; conditions: post-emerge, 14 days after application, rating scale 0-100
Outline: as §2

[18] = system: redroot pigweed (Amaranthus retroflexus, AMARE); assay: as above; conditions: post-emerge, 14 days after application, rating scale 0-100
Outline: as §2

[19] = system: sicklepod (Cassia obtusifolia, CASOB); assay: as above; conditions: post-emerge, 14 days after application, rating scale 0-100
Outline: as §2

[20] = system: velvetleaf (Abutilon theophrasti, ABUTH); assay: as above; conditions: post-emerge, 14 days after application, rating scale 0-100
Outline: as §2

[21] = system: field corn (Zea mays L., var. Dekalb 535, CORN); assay: Post-emerge test, crop safety; conditions: post-emerge, 14 days after application, rating scale 0-100
Outline: as §1

[22] = system: upland rice (Oryza sp., var. Tebonnet, RICE); assay: Post-emerge test, crop safety; conditions: post-emerge, 14 days after application, rating scale 0-100
Outline: as §1

COc1c(Cl)cc(F)c(-n2c(=O)cc(C(F)(F)F)n(C)c2=O)c1NC(=O)C(=O)c1ccccc1 [2-121]
Pre-emerge Herbicidal Activity, phytotoxicity rating (0-100), AMARE ([1]; 63 g ai/ha): 100 | Pre-emerge Herbicidal Activity, phytotoxicity rating (0-100), AMARE ([1]; 250 g ai/ha): 100 | Pre-emerge Herbicidal Activity, phytotoxicity rating (0-100), ECHCG ([2]; 63 g ai/ha): 0 | Pre-emerge Herbicidal Activity, phytotoxicity rating (0-100), ECHCG ([2]; 250 g ai/ha): 0 | Pre-emerge Herbicidal Activity, phytotoxicity rating (0-100), SETVI ([3]; 63 g ai/ha): 0 | Pre-emerge Herbicidal Activity, phytotoxicity rating (0-100), SETVI ([3]; 250 g ai/ha): 60 | Pre-emerge Herbicidal Activity, phytotoxicity rating (0-100), IPOHE ([4]; 63 g ai/ha): 0 | Pre-emerge Herbicidal Activity, phytotoxicity rating (0-100), IPOHE ([4]; 250 g ai/ha): 90 | Pre-emerge Herbicidal Activity, phytotoxicity rating (0-100), SORHA ([5]; 63 g ai/ha): 0 | Pre-emerge Herbicidal Activity, phytotoxicity rating (0-100), SORHA ([5]; 250 g ai/ha): 0 | Pre-emerge Herbicidal Activity, phytotoxicity rating (0-100), CHEAL ([6]; 63 g ai/ha): 80 | Pre-emerge Herbicidal Activity, phytotoxicity rating (0-100), CHEAL ([6]; 250 g ai/ha): 100 | Pre-emerge Herbicidal Activity, phytotoxicity rating (0-100), DIGSA ([7]; 63 g ai/ha): 0 | Pre-emerge Herbicidal Activity, phytotoxicity rating (0-100), DIGSA ([7]; 250 g ai/ha): 30 | Pre-emerge Herbicidal Activity, phytotoxicity rating (0-100), CASOB ([8]; 63 g ai/ha): 0 | Pre-emerge Herbicidal Activity, phytotoxicity rating (0-100), CASOB ([8]; 250 g ai/ha): 50 | Pre-emerge Herbicidal Activity, phytotoxicity rating (0-100), ABUTH ([9]; 63 g ai/ha): 100 | Pre-emerge Herbicidal Activity, phytotoxicity rating (0-100), ABUTH ([9]; 250 g ai/ha): 100 | Pre-emerge phytotoxicity rating (0-100), crop damage, CORN ([10]; 63 g ai/ha): 0 | Pre-emerge phytotoxicity rating (0-100), crop damage, CORN ([10]; 250 g ai/ha): 10 | Pre-emerge phytotoxicity rating (0-100), crop damage, RICE ([11]; 63 g ai/ha): 0 | Pre-emerge phytotoxicity rating (0-100), crop damage, RICE ([11]; 250 g ai/ha): 0 | phytotoxicity rating ECHCG ([12]; 63 g ai/ha): 0 | phytotoxicity rating ECHCG ([12]; 250 g ai/ha): 0 | phytotoxicity rating SETVI ([13]; 63 g ai/ha): 0 | phytotoxicity rating SETVI ([13]; 250 g ai/ha): 20 | phytotoxicity rating IPOHE ([14]; 63 g ai/ha): 100 | phytotoxicity rating IPOHE ([14]; 250 g ai/ha): 100 | phytotoxicity rating SORHA ([15]; 63 g ai/ha): 0 | phytotoxicity rating SORHA ([15]; 250 g ai/ha): 10 | phytotoxicity rating CHEAL ([16]; 63 g ai/ha): 60 | phytotoxicity rating CHEAL ([16]; 250 g ai/ha): 80 | phytotoxicity rating DIGSA ([17]; 63 g ai/ha): 0 | phytotoxicity rating DIGSA ([17]; 250 g ai/ha): 10 | phytotoxicity rating AMARE ([18]; 63 g ai/ha): 90 | phytotoxicity rating AMARE ([18]; 250 g ai/ha): 100 | phytotoxicity rating CASOB ([19]; 63 g ai/ha): 10 | phytotoxicity rating CASOB ([19]; 250 g ai/ha): 60 | phytotoxicity rating ABUTH ([20]; 63 g ai/ha): 70 | phytotoxicity rating ABUTH ([20]; 250 g ai/ha): 100 | phytotoxicity rating CORN ([21]; 63 g ai/ha): 10 | phytotoxicity rating CORN ([21]; 250 g ai/ha): 20 | phytotoxicity rating RICE ([22]; 63 g ai/ha): 15 | phytotoxicity rating RICE ([22]; 250 g ai/ha): 25
